Values of other authors as cited in article PMC3877923 (Journal of the American Chemical Society, 2013).
Marks after values point to notes of the source that are not given here.

Aqueous solubility S: << 1 ^b µg/mL
SMILES: Cc1cc(C#N)cc(C)c1Oc1nc(Nc2ccc(C#N)cc2)nc(N)c1Br [etravirine]
